Experiments:
[1] = test system: Phosphorylation of ERK1/2 in MIA PaCa-2 cells; test: Phospho-ERK1/2 MSD assay in MIA PaCa-2 cells; assay type: cell-based; conditions: Homo sapiens, MIA PaCa-2, 2 h, read-out: p-ERK IC50 (2 h, MiaPaCa-2; μM), 2 h compound treatment, MIA PaCa-2 cells, EGF stimulated
How it was run: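 Phospho-ERK1/2 measured by MSD electrochemiluminescence kit in RIPA lysates of MIA PaCa-2 cells. Cells were treated with compound titrations for 2 or 4 h at 37 °C, 5% CO2, followed by a 10 min pulse of 10 ng/mL EGF.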

[2] = test system: Phosphorylation of ERK1/2 in A549 cells; test: Phospho-ERK1/2 MSD assay in A549 cells; assay type: cell-based; conditions: Homo sapiens, A549, 2 h, read-out: p-ERK IC50 (2 h, A549; μM), 2 h compound treatment, A549 cells, EGF stimulated
How it was run: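 Readout: MSD phospho-ERK1/2 signal after compound (2 or 4 h) and 10 min EGF stimulation at 10 ng/mL.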

[3] = biological target: GDP-bound KRAS protein (aa 1-169), containing both G12C and C118A amino acid substitutions (Homo sapiens (Human), UniProt P01116, C118A/G12C); test: Coupled nucleotide exchange assay (SOS-mediated nucleotide exchange, AlphaScreen); assay type: biochemical; conditions: read-out: Coupled exchange IC50 (5 min; μM); 5 min compound pre-incubation
Sequence of GDP-bound KRAS protein (aa 1-169), containing both G12C and C118A amino acid substitutions (P01116 other isoform, or with tags, fused parts or gaps G12C/C118A): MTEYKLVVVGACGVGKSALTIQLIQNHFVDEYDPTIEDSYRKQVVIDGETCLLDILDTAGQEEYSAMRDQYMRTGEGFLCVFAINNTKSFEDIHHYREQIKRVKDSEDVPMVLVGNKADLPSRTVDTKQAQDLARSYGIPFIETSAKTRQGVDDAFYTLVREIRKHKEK

Row | SMILES | IC50 [1] | IC50 [2] | IC50 [3]
1 | C=CC(=O)N1C[C@H](C)N(c2nc(=O)n(-c3c(C)ccnc3C(C)C)c3nc(-c4cc(F)cc(F)c4N)c(Cl)cc23)C[C@H]1C (atropisomer, axis not shown; (M)) [Example 92-26, (M)-7-(2-Amino-3,5-difluoro-phenyl)-6-chloro-4-[(2S,5R)-2,5-dimethyl-4-prop-2-enoyl-piperazin-1-yl]-1-(2-isopropyl-4-methyl-3-pyridyl)pyrido [2,3-d]pyrimidin-2-one] | 0.023 µM | > 7.5 µM | 0.101 µM
2 | C=CC(=O)N1C[C@H](C)N(c2nc(=O)n(-c3c(C)ccnc3C(C)C)c3nc(-c4ccccc4C(=O)NC)c(Cl)cc23)C[C@H]1C (atropisomer, axis not shown; (M)) [Example 92-27, (M)-2-[6-Chloro-4-[(2S,5R)-2,5-dimethyl-4-prop-2-enoyl-piperazin-1-yl]-1-(2-isopropyl-4-methyl-3-pyridyl)-2-oxo-pyrido[2,3-d]pyrimidin-7-yl]-N-methyl-benzamide] | 0.735 µM | > 7.5 µM | 0.149 µM
3 | C=CC(=O)N1C[C@H](C)N(c2nc(=O)n(-c3c(C)ccnc3C(C)C)c3nc(-c4ccccc4C(=O)N(C)C)c(Cl)cc23)C[C@H]1C (atropisomer, axis not shown; (M)) [Example 92-28, (M)-2-[6-Chloro-4-[(2S,5R)-2,5-dimethyl-4-prop-2-enoyl-piperazin-1-yl]-1-(2-isopropyl-4-methyl-3-pyridyl)-2-oxo-pyrido[2,3-d]pyrimidin-7-yl]-N,N-dimethyl-benzamide] | 0.11 µM | > 7.5 µM | 0.123 µM
4 | C=CC(=O)N1C[C@H](C)N(c2nc(=O)n(-c3c(C)ccnc3C(C)C)c3nc(-c4ccccc4C(=O)O)c(Cl)cc23)C[C@H]1C (atropisomer, axis not shown; (M)) [Example 92-29, (M)-2-[6-Chloro-4-[(2S,5R)-2,5-dimethyl-4-prop-2-enoyl-piperazin-1-yl]-1-(2-isopropyl-4-methyl-3-pyridyl)-2-oxo-pyrido[2,3-d]pyrimidin-7-yl]benzoic acid] | 10 µM | > 7.5 µM | 0.139 µM
5 | C=CC(=O)N1C[C@H](C)N(c2nc(=O)n(-c3c(C)ccnc3C(C)C)c3nc(-c4cc(F)c(F)cc4N)c(Cl)cc23)C[C@H]1C (atropisomer, axis not shown; (M)) [Example 92-31, (M)-7-(2-Amino-4,5-difluoro-phenyl)-6-chloro-4-[(2S,5R)-2,5-dimethyl-4-prop-2-enoyl-piperazin-1-yl]-1-(2-isopropyl-4-methyl-3-pyridyl)pyrido [2,3-d]pyrimidin-2-one] | 0.022 µM | > 7.5 µM | 0.014 µM
6 | C=CC(=O)N1C[C@H](C)N(c2nc(=O)n(-c3c(C)ccnc3C(C)C)c3nc(-c4ccccc4NS(C)(=O)=O)c(Cl)cc23)C[C@H]1C (atropisomer, axis not shown; (M)) [Example 92-32, (M)-N-[2-[6-Chloro-4-[(2S,5R)-2,5-dimethyl-4-prop-2-enoyl-piperazin-1-yl]-1-(2-isopropyl-4-methyl-3-pyridyl)-2-oxo-pyrido[2,3-d]pyrimidin-7-yl]phenyl] methanesul-fonamide] | 0.129 µM | > 7.5 µM | 0.075 µM
7 | C=CC(=O)N1C[C@H](C)N(c2nc(=O)n(-c3c(C)ccnc3C(C)C)c3nc(-c4ccccc4S(N)(=O)=O)c(Cl)cc23)C[C@H]1C (atropisomer, axis not shown; (M)) [Example 92-33, (M)-2-[6-Chloro-4-[(2S,5R)-2,5-dimethyl-4-prop-2-enoyl-piperazin-1-yl]-1-(2-isopropyl-4-methyl-3-pyridyl)-2-oxo-pyrido[2,3-d]pyrimidin-7-yl] benzenesul-fonamide] | 0.216 µM | > 7.5 µM | 0.113 µM
